From ChEMBL document CHEMBL4507276 (2021)

Key:
[1] = tested on: Tyrosine-protein kinase ABL1 (Homo sapiens), P00519 [E255K]; details: Compound concentration 1000.0 nM
[2] = target: 5'-AMP-activated protein kinase catalytic subunit alpha-2 (Homo sapiens) (UniProt P54646); details: Compound concentration 1000.0 nM
[3] = target: Calcium/calmodulin-dependent protein kinase type 1D (Homo sapiens) (UniProt Q8IU85); details: Compound concentration 1000.0 nM
[4] = target: Calcium/calmodulin-dependent protein kinase type 1G (Homo sapiens) (UniProt Q96NX5); details: Compound concentration 1000.0 nM
[5] = target: Death-associated protein kinase 2 (Homo sapiens) (UniProt Q9UIK4); details: Compound concentration 1000.0 nM
[6] = target: T1, Serine/threonine-protein kinase 17A (Homo sapiens) (UniProt Q9UEE5); details: Compound concentration 1000.0 nM
T1 sequence (whole entry): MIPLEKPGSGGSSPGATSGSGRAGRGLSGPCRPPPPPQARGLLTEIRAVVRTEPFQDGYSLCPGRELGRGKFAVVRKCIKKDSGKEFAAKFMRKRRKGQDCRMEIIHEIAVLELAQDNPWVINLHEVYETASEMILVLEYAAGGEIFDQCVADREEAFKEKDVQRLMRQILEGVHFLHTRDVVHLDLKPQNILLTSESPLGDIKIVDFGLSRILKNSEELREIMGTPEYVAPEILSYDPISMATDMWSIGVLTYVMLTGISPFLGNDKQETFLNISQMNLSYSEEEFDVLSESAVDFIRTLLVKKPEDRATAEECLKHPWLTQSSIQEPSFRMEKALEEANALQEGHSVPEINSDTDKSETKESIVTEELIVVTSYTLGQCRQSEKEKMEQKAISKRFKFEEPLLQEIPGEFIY

[7] = target: T2, Ephrin type-B receptor 1 (Homo sapiens) (UniProt P54762); details: Compound concentration 1000.0 nM
T2 sequence (whole entry): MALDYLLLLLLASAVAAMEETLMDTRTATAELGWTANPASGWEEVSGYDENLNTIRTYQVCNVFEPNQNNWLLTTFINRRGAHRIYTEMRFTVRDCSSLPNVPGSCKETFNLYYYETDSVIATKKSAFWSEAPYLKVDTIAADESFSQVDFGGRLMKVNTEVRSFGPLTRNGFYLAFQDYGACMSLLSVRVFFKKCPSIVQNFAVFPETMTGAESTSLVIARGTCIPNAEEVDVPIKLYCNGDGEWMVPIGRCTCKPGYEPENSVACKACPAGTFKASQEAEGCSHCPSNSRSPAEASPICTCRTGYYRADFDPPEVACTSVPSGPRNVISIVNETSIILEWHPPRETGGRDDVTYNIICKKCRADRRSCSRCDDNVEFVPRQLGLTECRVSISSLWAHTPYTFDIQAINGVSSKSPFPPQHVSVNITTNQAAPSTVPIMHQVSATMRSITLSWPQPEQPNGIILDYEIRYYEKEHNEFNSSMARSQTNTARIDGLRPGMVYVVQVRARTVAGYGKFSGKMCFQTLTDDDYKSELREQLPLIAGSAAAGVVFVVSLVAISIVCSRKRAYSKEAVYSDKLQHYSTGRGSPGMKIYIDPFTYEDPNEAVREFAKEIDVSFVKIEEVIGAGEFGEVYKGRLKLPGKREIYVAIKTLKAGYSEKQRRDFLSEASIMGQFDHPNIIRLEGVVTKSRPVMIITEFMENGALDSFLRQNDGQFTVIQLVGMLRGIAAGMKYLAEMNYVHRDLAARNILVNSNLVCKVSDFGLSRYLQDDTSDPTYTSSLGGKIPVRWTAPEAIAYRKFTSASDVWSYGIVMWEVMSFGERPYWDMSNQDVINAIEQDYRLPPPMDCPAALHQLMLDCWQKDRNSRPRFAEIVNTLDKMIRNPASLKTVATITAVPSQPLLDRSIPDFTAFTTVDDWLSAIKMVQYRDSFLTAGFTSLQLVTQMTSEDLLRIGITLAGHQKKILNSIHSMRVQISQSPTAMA

[8] = target: Mitogen-activated protein kinase 7 (Homo sapiens) (UniProt Q13164); details: Compound concentration 1000.0 nM
[9] = tested on: Receptor-type tyrosine-protein kinase FLT3 (Homo sapiens), P36888 [D835H]; details: Compound concentration 1000.0 nM
[10] = target: Hormonally up-regulated neu tumor-associated kinase (Homo sapiens) (UniProt P57058); details: Compound concentration 1000.0 nM
[11] = tested on: Mast/stem cell growth factor receptor Kit (Homo sapiens), P10721 [V559D,T670I]; details: Compound concentration 1000.0 nM
[12] = tested on: Hepatocyte growth factor receptor (Homo sapiens), P08581 [Y1235D]; details: Compound concentration 1000.0 nM
[13] = target: Myosin light chain kinase 2, skeletal/cardiac muscle (Homo sapiens) (UniProt Q9H1R3); details: Compound concentration 1000.0 nM
[14] = target: Cyclin-dependent kinase 16 (Homo sapiens) (UniProt Q00536); details: Compound concentration 1000.0 nM
[15] = target: Calcium-dependent protein kinase 1 (Plasmodium falciparum) (UniProt P62344); details: Compound concentration 1000.0 nM
[16] = target: Protein-tyrosine kinase 2-beta (Homo sapiens) (UniProt Q14289); details: Compound concentration 1000.0 nM
[17] = target: Ribosomal protein S6 kinase alpha-1 (Homo sapiens) (UniProt Q15418); details: Compound concentration 1000.0 nM
[18] = target: Kappa-type opioid receptor (Homo sapiens) (UniProt P41145); details: Compound concentration 10.0 uM
[19] = target: T3, Muscarinic acetylcholine receptor M4 (Homo sapiens) (UniProt P08173); details: Compound concentration 10.0 uM
T3 sequence (whole entry): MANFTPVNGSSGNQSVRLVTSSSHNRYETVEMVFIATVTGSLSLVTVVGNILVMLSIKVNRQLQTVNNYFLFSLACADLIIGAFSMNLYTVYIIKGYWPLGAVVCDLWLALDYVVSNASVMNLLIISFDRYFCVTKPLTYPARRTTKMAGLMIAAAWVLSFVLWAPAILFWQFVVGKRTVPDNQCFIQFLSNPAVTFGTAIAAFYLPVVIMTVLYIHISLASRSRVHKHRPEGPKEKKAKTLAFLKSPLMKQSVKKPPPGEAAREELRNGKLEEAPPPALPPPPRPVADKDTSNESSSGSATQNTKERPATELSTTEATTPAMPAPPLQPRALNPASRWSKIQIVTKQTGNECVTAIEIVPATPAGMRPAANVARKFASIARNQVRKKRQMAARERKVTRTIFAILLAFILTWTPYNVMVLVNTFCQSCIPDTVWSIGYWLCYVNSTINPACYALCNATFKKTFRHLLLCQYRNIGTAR

Tyrosine-protein kinase ABL1 (Homo sapiens), P00519 [E255K], sequence (P00519 whole entry E255K): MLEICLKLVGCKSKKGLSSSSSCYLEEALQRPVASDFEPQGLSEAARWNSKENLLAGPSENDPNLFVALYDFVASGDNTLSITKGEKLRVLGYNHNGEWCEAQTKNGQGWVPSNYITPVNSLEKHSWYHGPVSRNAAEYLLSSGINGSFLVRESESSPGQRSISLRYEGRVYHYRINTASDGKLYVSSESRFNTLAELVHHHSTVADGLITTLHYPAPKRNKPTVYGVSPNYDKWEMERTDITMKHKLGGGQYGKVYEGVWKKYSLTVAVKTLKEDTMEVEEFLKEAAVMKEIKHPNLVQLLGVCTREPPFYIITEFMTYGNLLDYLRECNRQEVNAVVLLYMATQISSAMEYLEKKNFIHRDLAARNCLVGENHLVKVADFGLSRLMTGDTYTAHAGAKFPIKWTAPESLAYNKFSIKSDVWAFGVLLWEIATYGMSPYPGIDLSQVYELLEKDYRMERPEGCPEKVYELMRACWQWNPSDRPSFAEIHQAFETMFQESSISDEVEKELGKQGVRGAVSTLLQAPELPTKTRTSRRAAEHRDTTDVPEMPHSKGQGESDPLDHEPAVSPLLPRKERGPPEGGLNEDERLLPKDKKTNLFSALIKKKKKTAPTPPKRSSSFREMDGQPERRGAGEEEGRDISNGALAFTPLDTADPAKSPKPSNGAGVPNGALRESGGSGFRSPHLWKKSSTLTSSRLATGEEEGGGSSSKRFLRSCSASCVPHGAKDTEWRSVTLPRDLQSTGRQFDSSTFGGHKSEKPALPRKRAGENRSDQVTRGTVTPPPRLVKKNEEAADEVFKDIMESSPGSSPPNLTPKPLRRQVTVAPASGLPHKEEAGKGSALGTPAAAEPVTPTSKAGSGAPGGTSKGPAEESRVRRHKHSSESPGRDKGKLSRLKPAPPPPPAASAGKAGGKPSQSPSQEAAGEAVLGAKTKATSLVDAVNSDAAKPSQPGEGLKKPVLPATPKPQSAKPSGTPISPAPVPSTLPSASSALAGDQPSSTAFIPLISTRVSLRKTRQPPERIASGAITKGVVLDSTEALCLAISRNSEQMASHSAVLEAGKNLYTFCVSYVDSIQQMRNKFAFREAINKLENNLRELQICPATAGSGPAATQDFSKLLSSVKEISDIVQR
5'-AMP-activated protein kinase catalytic subunit alpha-2 (Homo sapiens), sequence (P54646 whole entry, looked up): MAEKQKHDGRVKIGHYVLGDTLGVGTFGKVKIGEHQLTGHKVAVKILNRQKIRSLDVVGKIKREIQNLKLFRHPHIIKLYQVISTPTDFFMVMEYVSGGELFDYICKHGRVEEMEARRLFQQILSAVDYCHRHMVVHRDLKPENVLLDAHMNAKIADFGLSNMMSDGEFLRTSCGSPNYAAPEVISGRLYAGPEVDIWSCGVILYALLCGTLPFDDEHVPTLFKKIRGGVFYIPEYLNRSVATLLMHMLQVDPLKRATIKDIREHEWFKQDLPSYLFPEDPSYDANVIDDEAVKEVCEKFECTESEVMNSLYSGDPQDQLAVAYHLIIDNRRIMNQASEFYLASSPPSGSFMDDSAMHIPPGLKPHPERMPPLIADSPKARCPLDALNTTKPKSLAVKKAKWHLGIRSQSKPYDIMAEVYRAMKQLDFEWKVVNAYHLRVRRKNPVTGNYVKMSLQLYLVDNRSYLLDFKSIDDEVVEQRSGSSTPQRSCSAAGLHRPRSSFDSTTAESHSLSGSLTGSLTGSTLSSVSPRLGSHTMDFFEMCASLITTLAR
Ribosomal protein S6 kinase alpha-1 (Homo sapiens), sequence (Q15418 whole entry): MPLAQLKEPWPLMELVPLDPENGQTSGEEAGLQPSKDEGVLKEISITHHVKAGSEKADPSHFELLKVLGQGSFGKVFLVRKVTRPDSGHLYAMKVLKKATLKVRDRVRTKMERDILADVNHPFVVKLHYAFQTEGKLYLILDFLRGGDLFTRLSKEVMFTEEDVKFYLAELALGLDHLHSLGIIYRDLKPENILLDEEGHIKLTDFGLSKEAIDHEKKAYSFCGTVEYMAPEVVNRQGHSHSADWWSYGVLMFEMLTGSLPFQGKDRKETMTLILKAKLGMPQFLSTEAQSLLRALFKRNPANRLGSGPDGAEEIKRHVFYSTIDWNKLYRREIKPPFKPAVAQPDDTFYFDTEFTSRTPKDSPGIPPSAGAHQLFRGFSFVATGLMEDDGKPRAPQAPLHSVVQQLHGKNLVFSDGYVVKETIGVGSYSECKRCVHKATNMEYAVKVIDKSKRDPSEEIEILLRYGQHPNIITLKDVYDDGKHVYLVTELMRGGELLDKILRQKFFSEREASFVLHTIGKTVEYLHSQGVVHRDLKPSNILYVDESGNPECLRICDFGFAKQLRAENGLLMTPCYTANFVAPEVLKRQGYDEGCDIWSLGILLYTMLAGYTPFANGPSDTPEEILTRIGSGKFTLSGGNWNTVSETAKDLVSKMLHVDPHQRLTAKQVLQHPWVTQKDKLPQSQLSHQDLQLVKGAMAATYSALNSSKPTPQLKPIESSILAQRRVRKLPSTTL
Kappa-type opioid receptor (Homo sapiens), sequence (P41145 whole entry): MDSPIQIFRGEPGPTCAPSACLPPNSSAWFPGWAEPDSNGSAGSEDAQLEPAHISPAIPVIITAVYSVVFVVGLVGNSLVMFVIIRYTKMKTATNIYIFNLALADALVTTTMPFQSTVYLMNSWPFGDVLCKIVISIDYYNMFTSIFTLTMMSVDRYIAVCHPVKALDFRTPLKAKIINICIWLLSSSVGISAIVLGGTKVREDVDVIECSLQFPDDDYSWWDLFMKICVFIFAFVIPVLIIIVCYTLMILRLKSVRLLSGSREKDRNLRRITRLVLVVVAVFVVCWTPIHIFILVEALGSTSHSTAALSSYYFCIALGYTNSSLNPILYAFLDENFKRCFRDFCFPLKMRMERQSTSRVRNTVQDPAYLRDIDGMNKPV
Hormonally up-regulated neu tumor-associated kinase (Homo sapiens), sequence (P57058 whole entry): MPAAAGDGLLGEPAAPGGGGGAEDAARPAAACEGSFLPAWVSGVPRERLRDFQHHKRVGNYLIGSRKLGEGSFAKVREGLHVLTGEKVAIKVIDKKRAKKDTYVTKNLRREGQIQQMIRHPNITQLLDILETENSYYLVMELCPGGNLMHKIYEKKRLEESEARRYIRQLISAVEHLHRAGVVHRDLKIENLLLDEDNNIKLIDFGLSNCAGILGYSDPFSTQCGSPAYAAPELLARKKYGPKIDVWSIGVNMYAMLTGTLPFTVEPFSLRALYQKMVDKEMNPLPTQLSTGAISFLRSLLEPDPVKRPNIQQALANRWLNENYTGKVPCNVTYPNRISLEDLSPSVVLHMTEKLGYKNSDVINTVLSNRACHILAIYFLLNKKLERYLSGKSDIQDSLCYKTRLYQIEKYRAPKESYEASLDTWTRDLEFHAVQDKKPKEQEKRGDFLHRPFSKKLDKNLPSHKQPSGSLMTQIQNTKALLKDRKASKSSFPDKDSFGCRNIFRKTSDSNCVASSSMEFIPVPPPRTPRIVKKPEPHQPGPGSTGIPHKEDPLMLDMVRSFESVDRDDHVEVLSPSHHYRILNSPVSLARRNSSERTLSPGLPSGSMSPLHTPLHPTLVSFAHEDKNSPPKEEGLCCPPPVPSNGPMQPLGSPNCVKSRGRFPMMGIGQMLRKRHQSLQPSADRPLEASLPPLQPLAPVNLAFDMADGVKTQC
Calcium-dependent protein kinase 1 (Plasmodium falciparum), sequence (P62344 2-524 limits assumed): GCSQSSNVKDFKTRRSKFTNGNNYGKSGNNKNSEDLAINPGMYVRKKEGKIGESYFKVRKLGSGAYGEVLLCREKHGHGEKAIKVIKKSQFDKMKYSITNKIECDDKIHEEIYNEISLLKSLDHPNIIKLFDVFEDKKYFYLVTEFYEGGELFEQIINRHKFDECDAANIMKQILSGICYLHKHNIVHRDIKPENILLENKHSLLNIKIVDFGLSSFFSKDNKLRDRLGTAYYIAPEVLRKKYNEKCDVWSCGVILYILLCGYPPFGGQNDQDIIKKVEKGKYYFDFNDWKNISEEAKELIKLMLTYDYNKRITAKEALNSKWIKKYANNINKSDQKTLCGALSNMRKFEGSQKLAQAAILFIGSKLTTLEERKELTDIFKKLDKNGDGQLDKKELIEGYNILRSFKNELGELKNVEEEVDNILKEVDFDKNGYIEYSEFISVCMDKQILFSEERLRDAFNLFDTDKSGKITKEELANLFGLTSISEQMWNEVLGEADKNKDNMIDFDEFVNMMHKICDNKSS
Mitogen-activated protein kinase 7 (Homo sapiens), sequence (Q13164 2-816 limits assumed): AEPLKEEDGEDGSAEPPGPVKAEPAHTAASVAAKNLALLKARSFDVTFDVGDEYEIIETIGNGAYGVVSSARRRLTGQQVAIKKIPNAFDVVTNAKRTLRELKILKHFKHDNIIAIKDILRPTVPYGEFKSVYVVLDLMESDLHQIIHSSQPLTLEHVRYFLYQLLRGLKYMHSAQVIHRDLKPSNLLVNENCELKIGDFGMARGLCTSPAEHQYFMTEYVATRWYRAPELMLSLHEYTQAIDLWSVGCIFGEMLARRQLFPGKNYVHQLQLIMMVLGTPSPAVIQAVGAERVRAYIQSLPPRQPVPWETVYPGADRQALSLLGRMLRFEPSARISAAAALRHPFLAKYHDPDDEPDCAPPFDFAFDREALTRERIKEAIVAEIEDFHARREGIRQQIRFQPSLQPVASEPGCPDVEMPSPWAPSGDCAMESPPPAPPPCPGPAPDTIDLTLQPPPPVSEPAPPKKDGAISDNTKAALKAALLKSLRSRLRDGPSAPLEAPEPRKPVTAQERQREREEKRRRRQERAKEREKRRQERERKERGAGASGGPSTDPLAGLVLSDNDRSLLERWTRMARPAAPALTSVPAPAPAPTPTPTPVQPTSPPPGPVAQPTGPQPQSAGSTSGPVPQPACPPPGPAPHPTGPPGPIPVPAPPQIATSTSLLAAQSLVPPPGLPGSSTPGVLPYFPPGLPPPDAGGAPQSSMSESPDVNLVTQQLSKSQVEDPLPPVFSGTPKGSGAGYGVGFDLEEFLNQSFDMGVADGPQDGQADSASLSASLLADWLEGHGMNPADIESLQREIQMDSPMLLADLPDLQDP

CN(C)C(=O)Cn1cc(-c2nc(C3(c4ccc(-c5cnc(N)nc5)cc4)CC3)no2)cn1 [BI 0153]
inactive: residual activity [1] 100% | residual activity [2] 86% | residual activity [3] 100% | residual activity [4] 100% | residual activity [5] 86% | residual activity [6] 100% | residual activity [7] 100% | residual activity [8] 97% | residual activity [9] 93% | residual activity [10] 96% | residual activity [11] 100% | residual activity [12] 98% | residual activity [13] 90% | residual activity [14] 80% | residual activity [15] 82% | residual activity [16] 90% | residual activity [17] 99% | inhibition [18] 16.2% | inhibition [19] 5.81%

CN(C)C(=O)Cn1cc(-c2nc([C@@](C)(c3ccc(-c4cnc(N)nc4)cc3)C3CC3)no2)cn1 [BI 665915]
inactive: residual activity [1] 95% | residual activity [2] 100% | residual activity [3] 100% | residual activity [4] 100% | residual activity [5] 100% | residual activity [6] 100% | residual activity [7] 100% | residual activity [8] 90% | residual activity [9] 86% | residual activity [10] 100% | residual activity [11] 81% | residual activity [12] 96% | residual activity [13] 100% | residual activity [14] 86% | residual activity [15] 58% | residual activity [16] 87% | residual activity [17] 93% | inhibition [18] 33.9% | inhibition [19] 10.3%
